# Results published in US20230241014A1, “MEK-INHIBITORS FOR THE TREATMENT OR PREVENTION OF CORONAVIRUS INFECTIONS AND/OR COVID-19 CYTOKINE STORM” (priority 2020, published 2023).
# System: SARS-CoV-2 SA variant B.1351
# Assay: Virus yield reduction assay against SARS-CoV-2 SA variant B.1351
# Format: cell-based
# Settings: MOI 0.1, 1 and 10, 50, 75, 100 μM, 24 h
smiles,measurement,setting,value
"O=C(O)c1ccc(F)c(F)c1Nc1ccc(I)cc1Cl [ATR-002, 2-(2-chloro-4-iodophenylamino)-N-3,4-difluoro benzoic acid]",virus yield (RT-qPCR),Calu-3,reduction of virus yield
same,virus yield (RT-qPCR),Vero,reduction of virus yield
